The experiment concerns human hepatoma Huh-7 cell line harboring a HCV replicon. The experiment can be described thus: HCV replicon assay (inhibition of viral replication, luciferase). As to conditions: Hepatitis C virus, 72 h; 2 μM; Huh-7 HCV replicon cells, 3 days incubation; inhibition of viral replication; read-out: % inhibition at 2 μM. In kind it is cell-based. Here is the method:
The anti-HCV activity of the compounds of this invention was tested in a human hepatoma Huh-7 cell line harboring a HCV replicon. The assay comprised the following steps:
Step 1: Compound Preparation and Serial Dilution.
Serial dilution was performed in 100% DMSO in a 384-well plate. A solution containing a compound at 225-fold concentration of the starting final serial dilution concentration was prepared in 100% DMSO and 15 uL added to the pre-specified wells in column 3 or 13 of a polypropylene 384-well plate. The rest of the 384-well plate was filled with 10 uL 100% DMSO except for columns 23 and 24, where 10 uL of 500 uM a HCV protease inhibitor (ITMN-191) in 100% DMSO was added. The HCV protease inhibitor was used a control of 100% inhibition of HCV replication. The plate was then placed on a Biomek FX Workstation to start the serial dilution. The serial dilution was performed for ten cycles of 3-fold dilution from column 3 to 12 or from column 13 to 22.
Step 2: Cell Culture Plate Preparation and Compound Addition
To each well of a black polypropylene 384-well plate, 90 μL of cell media containing 1600 suspended Huh-7 HCV replicon cells was added with a Biotek uFlow Workstation. A volume of 0.4 μL of the compound solution was transferred from the serial dilution plate to the cell culture plate on a Biomek FX Workstation. The DMSO concentration in the final assay condition was 0.44%. The plates were incubated for 3 days at 37° C. with 5% CO2 and 85% humidity.
Step 3: Detection of Cytotoxicity and Inhibition of Viral Replication
a) Assessment of cytotoxicity: The media in the 384-well cell culture plate was aspirated with a Biotek EL405 plate-washer. A volume of 50 μL of a solution containing 400 nM Calcein AM in 100% PBS was added to each well of the plate with a Biotek uFlow Workstation. The plate was incubated for 30 minutes at room temperature before the fluorescence signal ([…]) was measured with a Perkin Elmer Envision Plate Reader.
b) Assessment of inhibition of viral replication: The calcein-PBS solution in the 384-well cell culture plate was aspirated with a Biotek EL405 plate-washer. A volume of 20 μL of Dual-Glo luciferase buffer (Promega, Dual-Glo Luciferase Assay Reagent, cat. #E298B) was added to each well of the plate with a Biotek uFlow Workstation. The plate was incubated for 10 minutes at room temperature. A volume of 20 μL of a solution containing 1:100 mixture of Dual-Glo Stop & Glo substrate(Promega, Dual-Glo Luciferase Assay Reagent, cat. #E313B) and Dual-Glo Stop & Glo buffer (Promega, Dual-Glo Luciferase Assay Reagent, cat. #E314B) was then added to each well of the plate with a Biotek uFlow Workstation. The plate was incubated at room temperature for 10 minutes before the luminescence signal was measured with a Perkin Elmer Envision Plate Reader.
The percent cytotoxicity was determined by calcein AM conversion to fluorescent product. The average fluorescent signal from the DMSO control wells were defined as 100% nontoxic. The individual fluorescent signal from testing compound treated well was divided by the average signal from DMSO control wells and then multiplied by 100% to get the percent viability. The percent anti-HCV replication activity was determined by the luminescence signal from the testing well compared to DMSO controls wells. The background signal was determined by the average luminescence signal from the HCV protease inhibitor treated wells and was subtracted from the signal from the testing wells as well as the DMSO control wells. Following 3-fold serial dilutions, the EC50 and CC50 values were calculated by fitting % inhibition at each concentration to the following equation: % inhibition=100%[(EC50/[l])^b+1]
Where b is Hill's coefficient. See, for reference, Hill, A. V., The Possible Effects of the Aggregation of the Molecules of Hæmoglobin on its Dissociation Curves, J. Physiol. 40: iv-vii. (1910). […]
Background: In antiviral work, replicon cells carry a viral genome segment that copies itself.
What is called inhibition is how much of the control response was suppressed. In the case of `CC(C)(C)C#Cc1cc(N(C(=O)[C@H]2CC[C@H](C)CC2)C2CCC(NC(=O)O[C@@H]3CCCN(C(=O)OC(C)(C)C)C3)CC2)c(C(=O)O)s1` (stereo partly drawn) [Compound 46, 3-(R)-{4-[[2-carboxy-5-(3,3-dimethyl-but-1-ynyl)-thiophen-3-yl]-(4-trans-methyl-cyclohexanecarbonyl)-amino]-cyclohexylcarbamoyloxy}-piperidine-1-carboxylic acid tert-butyl ester], the inhibition at 2 µM came out at 97%. The value for `CC(C)(C)C#Cc1cc(N(C(=O)[C@H]2CC[C@H](C)CC2)C2CCC(NC(=O)O[C@@H]3CCCNC3)CC2)c(C(=O)O)s1` (stereo partly drawn) [Compound 47, 5-(3,3-dimethyl-but-1-ynyl)-3-{(4-trans-methyl-cyclohexanecarbonyl)-[4-(piperidin-3-(R)-yloxycarbonylamino)-cyclohexyl]-amino}-thiophene-2-carboxylic acid] was 99.9%; that for `CC(C)(C)C#Cc1cc(N(C(=O)[C@H]2CC[C@H](C)CC2)C2CCC(NC(=O)O[C@@H]3CCOC3)CC2)c(C(=O)O)s1` (stereo partly drawn) [Compound 48, 5-(3,3-dimethyl-but-1-ynyl)-3-{(4-trans-methyl-cyclohexanecarbonyl)-[4-(tetrahydro-furan-3-(R)-yloxycarbonylamino)-cyclohexyl]-amino}-thiophene-2-carboxylic acid] was 100%; that for `CC(C)(C)C#Cc1cc(N(C(=O)[C@H]2CC[C@H](C)CC2)C2CCC(NC(=O)O[C@H]3CNC(=O)C3)CC2)c(C(=O)O)s1` (stereo partly drawn) [Compound 49, 5-(3,3-dimethyl-but-1-ynyl)-3-{(4-trans-methyl-cyclohexanecarbonyl)-[4-(5-oxo-pyrrolidin-3-(S)-yloxycarbonylamino)-cyclohexyl]-amino}-thiophene-2-carboxylic acid] was 99.2%. Regarding `CC(C)(C)C#Cc1cc(N(C(=O)[C@H]2CC[C@H](C)CC2)C2CCC(NC(=O)O[C@@H]3CCNC3=O)CC2)c(C(=O)O)s1` (stereo partly drawn) [Compound 50, 5-(3,3-dimethyl-but-1-ynyl)-3-{(4-trans-methyl-cyclohexanecarbonyl)-[4-(2-oxo-pyrrolidin-3-(R)-yloxycarbonylamino)-cyclohexyl]-amino}-thiophene-2-carboxylic acid], the inhibition at 2 µM came to 99.9%.

Turning to `CC(C)(C)C#Cc1cc(N(C(=O)[C@H]2CC[C@H](C)CC2)C2CCN(C(=O)O[C@@H]3CCCN(C(=O)OC(C)(C)C)C3)CC2)c(C(=O)O)s1` [Compound 51, Boc protected 4-[[2-carboxy-5-(3,3-dimethyl-but-1-ynyl)-thiophen-3-yl]-(4-trans-methyl-cyclohexanecarbonyl)-amino]-piperidine-1-carboxylic acid piperidin-3-(R)-yl ester], the inhibition at 2 µM turned out to be 85.5%. Next, `CC(C)(C)C#Cc1cc(N(C(=O)[C@H]2CC[C@H](C)CC2)C2CCN(C(=O)O[C@@H]3CCCNC3)CC2)c(C(=O)O)s1` [Compound 52, 4-[[2-carboxy-5-(3,3-dimethyl-but-1-ynyl)-thiophen-3-yl]-(4-trans-methyl-cyclohexanecarbonyl)-amino]-piperidine-1-carboxylic acid piperidin-3-(R)-yl ester]: 93.5%; `CC(C)(C)C#Cc1cc(N(C(=O)[C@H]2CC[C@H](C)CC2)C2CCN(C(=O)O[C@@H]3CCOC3)CC2)c(C(=O)O)s1` [Compound 53, 4-[[2-carboxy-5-(3,3-dimethyl-but-1-ynyl)-thiophen-3-yl]-(4-trans-methyl-cyclohexanecarbonyl)-amino]-piperidine-1-carboxylic acid tetrahydro-furan-3-(R)-yl ester]: 99.9%; `CC(C)(C)C#Cc1cc(N(C(=O)[C@H]2CC[C@H](C)CC2)C2CCN(C(=O)OC3CCOCC3)CC2)c(C(=O)O)s1` [Compound 54, 4-[[2-carboxy-5-(3,3-dimethyl-but-1-ynyl)-thiophen-3-yl]-(4-trans-methyl-cyclohexanecarbonyl)-amino]-piperidine-1-carboxylic acid tetrahydro-pyran-4-yl ester]: 99.8%. The value for `CC(C)(C)C#Cc1cc(N(C(=O)[C@H]2CC[C@H](C)CC2)C2CCN(C(=O)O[C@H]3CNC(=O)C3)CC2)c(C(=O)O)s1` [Compound 55, 4-[[2-carboxy-5-(3,3-dimethyl-but-1-ynyl)-thiophen-3-yl]-(4-trans-methyl-cyclohexanecarbonyl)-amino]-piperidine-1-carboxylic acid 5-oxo-pyrrolidin-3-(R)-yl ester] was 87.9%; that for `CC(C)(C)C#Cc1cc(N(C(=O)[C@H]2CC[C@H](C)CC2)C2CCN(C(=O)O[C@@H]3CNC(=O)C3)CC2)c(C(=O)O)s1` [Compound 56, 4-[[2-carboxy-5-(3,3-dimethyl-but-1-ynyl)-thiophen-3-yl]-(4-trans-methyl-cyclohexanecarbonyl)-amino]-piperidine-1-carboxylic acid 5-oxo-pyrrolidin-3-(S)-yl ester] was 92.8%; that for `CC(C)(C)C#Cc1cc(N(C(=O)[C@H]2CC[C@H](C)CC2)C2CCN(C(=O)O[C@H]3CCNC3=O)CC2)c(C(=O)O)s1` [Compound 57, 4-[[2-carboxy-5-(3,3-dimethyl-but-1-ynyl)-thiophen-3-yl]-(4-methyl-cyclohexanecarbonyl)-amino]-piperidine-1-carboxylic acid 2-oxo-pyrrolidin-3-(S)-yl ester] was 78.2%. Next, `C[C@@H](CCNC(=O)O[C@H]1CO[C@H]2OCC[C@H]21)N(c1cc(C#CC(C)(C)C)sc1C(=O)O)C(=O)[C@H]1CC[C@H](C)CC1` [Compound 64, 5-(3,3-Dimethyl-but-1-ynyl)-3-[[3-(hexahydro-furo[2,3-b]furan-3-yloxycarbonylamino)-1-(S)-methyl-propyl]-(trans-4-methyl-cyclohexanecarbonyl)-amino]-thiophene-2-carboxylic acid]: 100%; `C[C@@H](CCNC(=O)O[C@@H]1CCOC1)N(c1cc(C#CC(C)(C)C)sc1C(=O)O)C(=O)[C@H]1CC[C@H](C)CC1` [Compound 65, 5-(3,3-dimethyl-but-1-ynyl)-3-[[trans-4-methyl-cyclohexanecarbonyl)-[1-(S)-methyl-3-(tetrahydrofuran-3-yloxycarbonylamino)-propyl]-amino]-thiophene-2-carboxylic acid]: 99.9%; `CC(C)(C)C#Cc1cc(N(C(=O)[C@H]2CC[C@H](C)CC2)C2CCC(NC(=O)O[C@H]3CO[C@H]4OCC[C@H]43)CC2)c(C(=O)O)s1` (stereo partly drawn) [Compound 66, 5-(3,3-Dimethyl-but-ynyl)-3-[[4-(hexahydro-furo[2,3-b]furan-3-yloxycarbonylamino)-cyclohexyl]-(trans-4-methyl-cyclohexanecarbonyl)-amino]-thiophene-2-carboxylic acid]: 99.9%. Take `CC(C)(C)C#Cc1cc(N(C(=O)[C@H]2CC[C@H](C)CC2)[C@H]2CCN(C(=O)OC3(C)CCNC3)C2)c(C(=O)O)s1` (stereo partly drawn) [Compound 68, 3-(S)-[[2-Carboxy-5-(3,3-dimethyl-but-1-ynyl)-thiophen-3-yl]-(trans-4-methylcyclohexanecarbonyl)-amino]-pyrrolidine-1-carbocylic-acid-3-methyl-pyrrolidin-3-yl-ester]: the inhibition at 2 µM was 98.5%. Next, `CC(C)(C)C#Cc1cc(N(C(=O)[C@H]2CC[C@H](C)CC2)[C@H]2CCN(C(=O)OC3(C)CN(C(=O)OC(C)(C)C)C3)C2)c(C(=O)O)s1` [Compound 69, 3-[[2-carboxy-5-(3,3-dimethyl-but-1-ynyl)-thiophen-3-yl]-(trans-4-methyl-cyclohexanecarbonyl)-3-(S)-amino]-pyrrolidine-1-carboxylic acid 1-tert-butoxycarbonyl-3-methyl-azetidin-3-yl ester]: 99.5%.

Source of the values: US8884030B2, “Inhibitors of Flaviviridae viruses” (priority 2010, dated 2014).
